Source: patent publication US20020071842A1, “Soluble CD1 compositions and uses thereof” (priority 2000, published 2002)

Legend:
Assay in all cases: Plate-bound mCD1d fusion protein hybridoma stimulation assay (IL-2 ELISA)
Type in all cases: cell-based, mouse
[1] = system: 24.8.A hybridoma; conditions: for IL-2 secretion: 24.8 A NKT hybridoma, plate-bound mCD1d-IgGFc2a fusion protein preincubated with lipid antigen
From the text: (§1) The CD1d-restricted T cell clones 24.7, 24.8, 24.9 (NKT cell) and 14S.6, 14S.7, 14S.10, and 14S.15 (diverse TCRs) were all derived from spleen of wild type C57BL/6 mice, as described previously (Behar, S. M. et al., J. Immunol., 162:161-7 (1999)). To generate T cell hybridomas, the activated T cells were fused to the aminopterin-sensitive BW5147 αβTCR^− thymoma cell line using PEG1500, and hybrids were selected in HAT medium (Life Technologies, Gaithersburg, Md.). Resulting TT hybridomas were tested for recognition of RMA-S cells transfected with mCD1D1 compared to untransfected RMA-S cells, as described below. […] The hybridomas are distinguished from the original T cell clones by the addition of a letter to their names. The KT/7, KT/12, KT/22, and KT/23 and Vβ/9 NKT cell hybridomas were derived from NK1.1^+ T cells enriched from spleen of C57BL/6 mice by depletion of CD8+ T cells, naive T cells, and B cells by mAbs (anti-B220, CD8, and CD62L, or anti-CD8α, CD8β, and Me114) bound to magnetic microbeads, or to plastic. The purified cells were stimulated either by the anti-CD3 KT3 mAb (KT/7, KT/12, KT/22, KT/23), or by an anti-Vβ8.2 mAb (Vβ/9), and addition of IL-2 or IL-2 and IL-7. After 4-5 days of culture the cells were fused with BW5147 thymoma cells. The VII68, VIII24, XVI9, and XV104 diverse TCR hybridomas were generated from CD4^+ T cells from class 110 mice, as described previously (Cardell, S. et al., J. Exp. Med., 182:993-1004 (1995)). The DN32D3 hybridoma was derived as described (Lantz, O., and Bendelac, A., J. Exp. Med., 180:1097-106 (1994).
(§2) To test for recognition of the mCD1d fusion protein and purified or synthetic antigens, 96 well protein A coated plates (Pierce Chemical Company) were incubated with 400-600 ng/well of the fusion protein or a negative control IgG2a antibody, RPC5.4 or UPC10, in PBS, at pH 7.2. Lipid antigens were diluted into PBS and added where specified at the indicated molar ratio of antigen to fusion protein, (when not specified the ratio was 40:1). Protein A plates containing the fusion protein and antigen were incubated 24-48 hr at 37° C., then washed three times with 200 μl/well sterile PBS, pH 7.2, and two times with 200 μl/well sterile culture medium (containing RPMI supplemented with L-glutamine and penicillin/streptomycin, Life Technologies, Gaithersburg, Md., and 10% bovine calf serum, Hyclone Laboratories, Logan, Utah). For assays in which the PI was phospholipase treated, it was first diluted into 0.01M Tris, 0.15M NaCl, pH 7.5, containing 0.25 U PI-specific phospholipase C or 0.5 U phospholipase D (Sigma, St Louis, Mo.), and incubated 30 minutes at room temperature, then added to the protein A plates as described above. For assays in which the pH was varied during antigen incubation with the fusion protein, the fusion protein and α-GalCer were diluted into a 20 mM citrate/phosphate buffer of the specified pH, which contained 0.15 M NaCl, and after incubation, the samples were neutralized by addition of 1M Tris, pH 7.5. Hybridoma cells were added to fusion protein/antigen treated plates at a concentration of 1×10^5 cells/well, in a total volume of 150 μl/well. Assays were performed using 2-6 replicate wells. In some assays, an anti-mCD1d blocking antibody (19G11) was included at a final concentration of 20 μg/ml. The plates were incubated at 37° C. for 16-20 hr, and culture supernatants were withdrawn for analysis. Each experiment was performed at least three times.
(§3) IL-2 secreted in the hybridoma stimulation assays was quantitated in a double antibody sandwich ELISA, by comparison to a standard curve of purified murine IL-2 (Pharmingen, San Diego, Calif.). Hybridoma plate stimulation supernatants (used either neat or diluted) and serially diluted IL-2 standards were added to 96 well ELISA plates coated with a rat anti-mouse IL-2 capture antibody (Pharmingen).

[2] = system: VII68 hybridoma; conditions: VII68 diverse TCR hybridoma; plate-bound mCD1d-IgGFc2a fusion protein preincubated with lipid antigen
From the text: as §1, §2
as §3, with “(Pharmingen). […]” for “(Pharmingen).”

[3] = system: DN32D3 hybridoma; conditions: DN32D3 NKT hybridoma; plate-bound mCD1d-IgGFc2a fusion protein preincubated with lipid antigen
From the text: as §1, §2
as §3, with “(Pharmingen). […]” for “(Pharmingen).”

[4] = system: VIII24 hybridoma; conditions: VIII24 diverse TCR hybridoma; plate-bound mCD1d-IgGFc2a fusion protein preincubated with lipid antigen
From the text: as §1, §2
as §3, with “(Pharmingen). […]” for “(Pharmingen).”

[5] = system: 24.9.E hybridoma; conditions: 24.9 E NKT hybridoma; plate-bound mCD1d-IgGFc2a fusion protein preincubated with lipid antigen
From the text: as §1, §2
as §3, with “(Pharmingen). […]” for “(Pharmingen).”

[6] = system: KT/22 hybridoma; conditions: KT/22 NKT hybridoma; plate-bound mCD1d-IgGFc2a fusion protein preincubated with lipid antigen
From the text: as §1, §2
as §3, with “(Pharmingen). […]” for “(Pharmingen).”

[7] = system: 14S.6.A hybridoma; conditions: 14S.6.A diverse TCR hybridoma; plate-bound mCD1d-IgGFc2a fusion protein preincubated with lipid antigen
From the text: as §1, §2
as §3, with “(Pharmingen). […]” for “(Pharmingen).”

[8] = system: 14S.7.N hybridoma; conditions: 14S.7.N diverse TCR hybridoma; plate-bound mCD1d-IgGFc2a fusion protein preincubated with lipid antigen
From the text: as §1, §2
as §3, with “(Pharmingen). […]” for “(Pharmingen).”

[9] = system: 14S.15.A hybridoma; conditions: 14S.15.A diverse TCR hybridoma; plate-bound mCD1d-IgGFc2a fusion protein preincubated with lipid antigen
From the text: as §1, §2
as §3, with “(Pharmingen). […]” for “(Pharmingen).”

[10] = system: 24.7.C hybridoma; conditions: 24 7.C NKT hybridoma; plate-bound mCD1d-IgGFc2a fusion protein preincubated with lipid antigen
From the text: as §1, §2
as §3, with “(Pharmingen). […]” for “(Pharmingen).”

[11] = system: XV19 hybridoma; conditions: XV19 diverse TCR hybridoma; plate-bound mCD1d-IgGFc2a fusion protein preincubated with lipid antigen
From the text: as §1, §2
as §3, with “(Pharmingen). […]” for “(Pharmingen).”

[12] = system: XV104 hybridoma; conditions: XV104 diverse TCR hybridoma; plate-bound mCD1d-IgGFc2a fusion protein preincubated with lipid antigen
From the text: as §1, §2
as §3, with “(Pharmingen). […]” for “(Pharmingen).”

[13] = system: Vβ/9 hybridoma; conditions: Vβ/9 NKT hybridoma; plate-bound mCD1d-IgGFc2a fusion protein preincubated with lipid antigen
From the text: as §1, §2
as §3, with “(Pharmingen). […]” for “(Pharmingen).”

[14] = system: KT/23 hybridoma; conditions: KT/23 NKT hybridoma; plate-bound mCD1d-IgGFc2a fusion protein preincubated with lipid antigen
From the text: as §1, §2
as §3, with “(Pharmingen). […]” for “(Pharmingen).”

[15] = system: 14S.10.C hybridoma; conditions: 14S.10 C diverse TCR hybridoma; plate-bound mCD1d-IgGFc2a fusion protein preincubated with lipid antigen
From the text: as §1, §2
as §3, with “(Pharmingen). […]” for “(Pharmingen).”

[16] = system: KT/7 hybridoma; conditions: KT/7 NKT hybridoma; plate-bound mCD1d-IgGFc2a fusion protein preincubated with lipid antigen
From the text: as §1, §2
as §3, with “(Pharmingen). […]” for “(Pharmingen).”

[17] = system: KT/12 hybridoma; conditions: KT/12 NKT hybridoma; plate-bound mCD1d-IgGFc2a fusion protein preincubated with lipid antigen
From the text: as §1, §2
as §3, with “(Pharmingen). […]” for “(Pharmingen).”

Substance: disialoganglioside [GD1a]
- IL-2 secretion [1]: 0 (A “0” indicates a mean of less than 50 pg/ml IL-2 was secreted)
- IL-2 secretion [2]: 0 (A “0” indicates a mean of less than 50 pg/ml IL-2 was secreted)
- IL-2 secretion [3]: 0 (A “0” indicates a mean of less than 50 pg/ml IL-2 was secreted)
- IL-2 secretion [4]: 0 (A “0” indicates a mean of less than 50 pg/ml IL-2 was secreted)
- IL-2 secretion [5]: 0 (A “0” indicates a mean of less than 50 pg/ml IL-2 was secreted)
- IL-2 secretion [6]: 0 (A “0” indicates a mean of less than 50 pg/ml IL-2 was secreted)
- IL-2 secretion [7]: 0 (A “0” indicates a mean of less than 50 pg/ml IL-2 was secreted)
- IL-2 secretion [8]: 0 (A “0” indicates a mean of less than 50 pg/ml IL-2 was secreted)
- IL-2 secretion [9]: 0 (A “0” indicates a mean of less than 50 pg/ml IL-2 was secreted)
- IL-2 secretion [10]: 0 (A “0” indicates a mean of less than 50 pg/ml IL-2 was secreted)
- IL-2 secretion [11]: 0 (A “0” indicates a mean of less than 50 pg/ml IL-2 was secreted)
- IL-2 secretion [12]: 0 (A “0” indicates a mean of less than 50 pg/ml IL-2 was secreted)
- IL-2 secretion [13]: 0 (A “0” indicates a mean of less than 50 pg/ml IL-2 was secreted)
- IL-2 secretion [14]: 0 (A “0” indicates a mean of less than 50 pg/ml IL-2 was secreted)
- IL-2 secretion [15]: 0 (A “0” indicates a mean of less than 50 pg/ml IL-2 was secreted)
- IL-2 secretion [16]: 0 (A “0” indicates a mean of less than 50 pg/ml IL-2 was secreted)
- IL-2 secretion [17]: 0 (A “0” indicates a mean of less than 50 pg/ml IL-2 was secreted)

Substance: monogalactosyl diglyceride [MGDG]
- IL-2 secretion [1]: + (“+” indicates 50-250 pg/ml)
- IL-2 secretion [2]: 0 (A “0” indicates a mean of less than 50 pg/ml IL-2 was secreted)
- IL-2 secretion [3]: 0 (A “0” indicates a mean of less than 50 pg/ml IL-2 was secreted)
- IL-2 secretion [4]: 0 (A “0” indicates a mean of less than 50 pg/ml IL-2 was secreted)
- IL-2 secretion [5]: 0 (A “0” indicates a mean of less than 50 pg/ml IL-2 was secreted)
- IL-2 secretion [6]: 0 (A “0” indicates a mean of less than 50 pg/ml IL-2 was secreted)
- IL-2 secretion [7]: 0 (A “0” indicates a mean of less than 50 pg/ml IL-2 was secreted)
- IL-2 secretion [8]: 0 (A “0” indicates a mean of less than 50 pg/ml IL-2 was secreted)
- IL-2 secretion [9]: 0 (A “0” indicates a mean of less than 50 pg/ml IL-2 was secreted)
- IL-2 secretion [10]: 0 (A “0” indicates a mean of less than 50 pg/ml IL-2 was secreted)
- IL-2 secretion [11]: 0 (A “0” indicates a mean of less than 50 pg/ml IL-2 was secreted)
- IL-2 secretion [12]: 0 (A “0” indicates a mean of less than 50 pg/ml IL-2 was secreted)
- IL-2 secretion [13]: 0 (A “0” indicates a mean of less than 50 pg/ml IL-2 was secreted)
- IL-2 secretion [14]: 0 (A “0” indicates a mean of less than 50 pg/ml IL-2 was secreted)
- IL-2 secretion [16]: 0 (A “0” indicates a mean of less than 50 pg/ml IL-2 was secreted)
- IL-2 secretion [17]: 0 (A “0” indicates a mean of less than 50 pg/ml IL-2 was secreted)

Substance: phosphatidylglycerol [PG]
- IL-2 response to mCD1d fusion protein pre-treated with purified or synthetic lipid ([1]; 24.8.A hybridoma, compared to untreated or buffer treated fusion protein): dose dependent responses
- IL-2 secretion [1]: ++ (“++” indicates 250-1000 pg/ml)
- IL-2 secretion [2]: 0 (A “0” indicates a mean of less than 50 pg/ml IL-2 was secreted)
- IL-2 secretion [3]: 0 (A “0” indicates a mean of less than 50 pg/ml IL-2 was secreted)
- IL-2 secretion [4]: 0 (A “0” indicates a mean of less than 50 pg/ml IL-2 was secreted)
- IL-2 secretion [5]: + (“+” indicates 50-250 pg/ml)
- IL-2 secretion [6]: 0 (A “0” indicates a mean of less than 50 pg/ml IL-2 was secreted)
- IL-2 secretion [7]: + (“+” indicates 50-250 pg/ml)
- IL-2 secretion [8]: + (“+” indicates 50-250 pg/ml)
- IL-2 secretion [9]: + (“+” indicates 50-250 pg/ml)
- IL-2 secretion [10]: 0 (A “0” indicates a mean of less than 50 pg/ml IL-2 was secreted)
- IL-2 secretion [11]: 0 (A “0” indicates a mean of less than 50 pg/ml IL-2 was secreted)
- IL-2 secretion [12]: 0 (A “0” indicates a mean of less than 50 pg/ml IL-2 was secreted)
- IL-2 secretion [13]: 0 (A “0” indicates a mean of less than 50 pg/ml IL-2 was secreted)
- IL-2 secretion [14]: 0 (A “0” indicates a mean of less than 50 pg/ml IL-2 was secreted)
- IL-2 secretion [16]: 0 (A “0” indicates a mean of less than 50 pg/ml IL-2 was secreted)
- IL-2 secretion [17]: 0 (A “0” indicates a mean of less than 50 pg/ml IL-2 was secreted)
